The target in test [1] is T1, Serine/threonine-protein kinase 3 (Homo sapiens) (UniProt Q13188).
T1 sequence (whole entry): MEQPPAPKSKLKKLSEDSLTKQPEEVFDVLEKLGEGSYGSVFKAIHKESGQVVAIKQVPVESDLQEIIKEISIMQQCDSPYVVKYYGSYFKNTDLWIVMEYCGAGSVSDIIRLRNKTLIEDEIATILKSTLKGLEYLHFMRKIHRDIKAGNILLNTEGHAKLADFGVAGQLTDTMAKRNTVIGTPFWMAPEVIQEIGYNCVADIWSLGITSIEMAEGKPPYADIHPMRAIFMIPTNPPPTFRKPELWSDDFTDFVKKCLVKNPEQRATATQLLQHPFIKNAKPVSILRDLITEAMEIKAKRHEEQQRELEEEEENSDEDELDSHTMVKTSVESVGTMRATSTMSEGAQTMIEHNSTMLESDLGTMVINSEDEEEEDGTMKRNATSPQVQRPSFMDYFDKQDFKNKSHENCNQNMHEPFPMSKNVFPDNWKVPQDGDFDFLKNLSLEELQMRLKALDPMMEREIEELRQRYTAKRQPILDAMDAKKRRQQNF
As to the kind of experiment: Inhibition of human MST2/STK3 using myelin basic protein as substrate at 1 uM in presence of 32P-ATP by Hotspot assay relative to control; values are per cent of control.

Test [2] addresses RAC-beta serine/threonine-protein kinase (Homo sapiens) (UniProt P31751). As to the kind of experiment: Inhibition of human AKT2 using KGSGSGRPRTSSFAEG as substrate at 1 uM in presence of 32P-ATP by Hotspot assay relative to control; values are per cent of control.
Test [3] addresses Tyrosine-protein kinase BTK (Homo sapiens) (UniProt Q06187). As to the kind of experiment: Inhibition of human BTK using poly[Glu:Tyr] (4:1) as substrate at 1 uM in presence of 32P-ATP by Hotspot assay relative to control; values are per cent of control.
For test [4], the target named is CDK3/Cyclin E (Homo sapiens) (UniProt P24864+Q00526). The experiment in a line: Inhibition of human CDK3/cyclin E using RB Protein as substrate at 1 uM in presence of 32P-ATP by Hotspot assay relative to control; values are per cent of control.
Sequence of CDK3/Cyclin E (Homo sapiens) (P24864 whole entry, looked up): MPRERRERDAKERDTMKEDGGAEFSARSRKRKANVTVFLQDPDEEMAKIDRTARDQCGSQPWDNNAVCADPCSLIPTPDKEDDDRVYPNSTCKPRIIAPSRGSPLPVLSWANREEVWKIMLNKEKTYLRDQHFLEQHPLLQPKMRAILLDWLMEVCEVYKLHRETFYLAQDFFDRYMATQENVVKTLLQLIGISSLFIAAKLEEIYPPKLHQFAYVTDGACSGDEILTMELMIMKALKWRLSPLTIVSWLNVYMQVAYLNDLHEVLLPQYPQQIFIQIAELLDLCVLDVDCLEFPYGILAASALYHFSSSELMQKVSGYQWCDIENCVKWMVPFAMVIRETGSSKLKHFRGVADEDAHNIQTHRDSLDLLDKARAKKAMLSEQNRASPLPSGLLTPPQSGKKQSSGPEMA
Sequence of CDK3/Cyclin E (Homo sapiens) (Q00526 whole entry, looked up): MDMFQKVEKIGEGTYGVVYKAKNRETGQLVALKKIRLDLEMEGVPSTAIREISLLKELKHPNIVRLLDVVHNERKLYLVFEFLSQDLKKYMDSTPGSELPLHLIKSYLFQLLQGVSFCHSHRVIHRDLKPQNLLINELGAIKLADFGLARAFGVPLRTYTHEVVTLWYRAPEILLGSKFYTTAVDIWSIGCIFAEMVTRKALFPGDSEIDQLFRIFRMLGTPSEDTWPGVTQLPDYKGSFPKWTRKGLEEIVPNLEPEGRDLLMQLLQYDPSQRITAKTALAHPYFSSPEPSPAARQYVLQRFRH
The target in test [5] is T2, Serine/threonine-protein kinase Sgk2 (Homo sapiens) (UniProt Q9HBY8).
T2 sequence (whole entry): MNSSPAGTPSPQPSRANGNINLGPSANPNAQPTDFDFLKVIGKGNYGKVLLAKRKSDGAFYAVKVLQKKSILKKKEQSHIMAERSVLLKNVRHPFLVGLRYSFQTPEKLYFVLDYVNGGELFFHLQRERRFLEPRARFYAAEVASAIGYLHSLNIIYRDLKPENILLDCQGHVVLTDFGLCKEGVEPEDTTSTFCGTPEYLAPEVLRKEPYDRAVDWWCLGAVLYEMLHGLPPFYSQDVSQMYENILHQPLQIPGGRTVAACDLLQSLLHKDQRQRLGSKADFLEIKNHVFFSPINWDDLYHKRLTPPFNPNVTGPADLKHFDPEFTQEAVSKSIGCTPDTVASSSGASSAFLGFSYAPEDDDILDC
As to the kind of experiment: Inhibition of human SGK2 using KGSGSGRPRTSSFAEG as substrate at 1 uM in presence of 32P-ATP by Hotspot assay relative to control; values are per cent of control.

The target in test [6] is MAP/microtubule affinity-regulating kinase 3 (Homo sapiens) (UniProt P27448). The experiment in a line: Inhibition of human MARK3 using KKKVSRSGLYRSPSMPENLNRPR as substrate at 1 uM in presence of 32P-ATP by Hotspot assay relative to control; values are per cent of control.
Sequence of MAP/microtubule affinity-regulating kinase 3 (Homo sapiens) (P27448 whole entry, looked up): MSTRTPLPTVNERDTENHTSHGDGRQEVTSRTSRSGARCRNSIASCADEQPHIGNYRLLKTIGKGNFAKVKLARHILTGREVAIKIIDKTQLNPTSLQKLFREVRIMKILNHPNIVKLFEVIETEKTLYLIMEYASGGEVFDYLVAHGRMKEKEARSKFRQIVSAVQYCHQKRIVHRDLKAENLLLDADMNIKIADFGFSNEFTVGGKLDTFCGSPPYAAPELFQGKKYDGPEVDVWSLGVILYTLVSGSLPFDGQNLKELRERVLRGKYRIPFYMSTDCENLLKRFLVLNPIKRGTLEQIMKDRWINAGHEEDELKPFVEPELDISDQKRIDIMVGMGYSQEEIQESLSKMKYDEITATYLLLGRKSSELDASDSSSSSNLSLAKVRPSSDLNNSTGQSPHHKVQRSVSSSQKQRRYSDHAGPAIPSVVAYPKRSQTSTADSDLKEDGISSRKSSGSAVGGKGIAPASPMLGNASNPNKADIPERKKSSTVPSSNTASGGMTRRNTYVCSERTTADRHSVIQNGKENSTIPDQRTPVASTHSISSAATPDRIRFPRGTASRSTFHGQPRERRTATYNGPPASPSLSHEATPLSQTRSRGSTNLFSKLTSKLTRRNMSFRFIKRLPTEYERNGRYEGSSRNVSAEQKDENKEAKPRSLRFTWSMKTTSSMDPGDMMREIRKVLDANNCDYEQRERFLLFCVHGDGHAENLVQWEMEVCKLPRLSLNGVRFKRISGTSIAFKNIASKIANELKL
The target in test [7] is Myosin light chain kinase 2, skeletal/cardiac muscle (Homo sapiens) (UniProt Q9H1R3). As to the kind of experiment: Residual activity of human MLCK2/MYLK2 using KKLNRTLSFAEPG as substrate at 1 uM in presence of 32P-ATP by Hotspot assay relative to control.
Sequence of Myosin light chain kinase 2, skeletal/cardiac muscle (Homo sapiens) (Q9H1R3 whole entry): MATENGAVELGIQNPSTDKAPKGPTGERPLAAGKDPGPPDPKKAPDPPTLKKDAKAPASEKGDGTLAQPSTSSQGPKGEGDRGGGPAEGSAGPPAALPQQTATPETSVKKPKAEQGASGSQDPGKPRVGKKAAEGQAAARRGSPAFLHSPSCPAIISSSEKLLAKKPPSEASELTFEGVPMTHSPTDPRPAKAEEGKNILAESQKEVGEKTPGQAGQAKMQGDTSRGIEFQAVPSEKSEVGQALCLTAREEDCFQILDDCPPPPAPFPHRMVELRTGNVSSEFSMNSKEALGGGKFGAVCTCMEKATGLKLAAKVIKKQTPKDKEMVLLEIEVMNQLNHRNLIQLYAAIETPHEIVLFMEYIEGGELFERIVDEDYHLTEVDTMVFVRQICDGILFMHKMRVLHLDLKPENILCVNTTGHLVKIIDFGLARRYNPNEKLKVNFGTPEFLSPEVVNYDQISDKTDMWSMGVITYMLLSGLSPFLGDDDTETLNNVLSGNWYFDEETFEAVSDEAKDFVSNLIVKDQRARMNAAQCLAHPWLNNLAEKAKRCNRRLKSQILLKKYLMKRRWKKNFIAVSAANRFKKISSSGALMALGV
Test [8] addresses T3, Serine/threonine-protein kinase DCLK2 (Homo sapiens) (UniProt Q8N568).
T3 sequence (whole entry): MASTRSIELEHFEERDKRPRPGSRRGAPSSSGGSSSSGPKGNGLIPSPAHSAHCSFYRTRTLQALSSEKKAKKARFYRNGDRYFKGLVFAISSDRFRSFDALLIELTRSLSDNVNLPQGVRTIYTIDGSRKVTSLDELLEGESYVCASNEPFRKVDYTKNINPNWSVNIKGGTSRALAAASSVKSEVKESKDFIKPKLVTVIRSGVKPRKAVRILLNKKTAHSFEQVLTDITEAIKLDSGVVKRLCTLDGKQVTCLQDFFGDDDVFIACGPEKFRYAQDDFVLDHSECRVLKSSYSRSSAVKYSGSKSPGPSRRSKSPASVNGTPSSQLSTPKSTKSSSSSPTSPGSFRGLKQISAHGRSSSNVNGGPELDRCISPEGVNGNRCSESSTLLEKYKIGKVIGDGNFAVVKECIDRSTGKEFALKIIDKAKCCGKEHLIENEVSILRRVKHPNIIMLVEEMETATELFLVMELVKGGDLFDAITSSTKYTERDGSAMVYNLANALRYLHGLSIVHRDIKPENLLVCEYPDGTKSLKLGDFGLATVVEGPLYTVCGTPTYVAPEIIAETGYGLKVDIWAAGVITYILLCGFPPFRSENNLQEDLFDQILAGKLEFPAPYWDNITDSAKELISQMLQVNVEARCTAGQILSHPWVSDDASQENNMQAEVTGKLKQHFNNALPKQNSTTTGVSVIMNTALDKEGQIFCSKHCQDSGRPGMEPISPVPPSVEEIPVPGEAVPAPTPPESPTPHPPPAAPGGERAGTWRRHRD
The experiment in a line: Inhibition of human DCAMKL2 using KKLNRTLSFAEPG as substrate at 1 uM in presence of 32P-ATP by Hotspot assay relative to control; values are per cent of control.

Sequence of RAC-beta serine/threonine-protein kinase (Homo sapiens) (P31751 whole entry): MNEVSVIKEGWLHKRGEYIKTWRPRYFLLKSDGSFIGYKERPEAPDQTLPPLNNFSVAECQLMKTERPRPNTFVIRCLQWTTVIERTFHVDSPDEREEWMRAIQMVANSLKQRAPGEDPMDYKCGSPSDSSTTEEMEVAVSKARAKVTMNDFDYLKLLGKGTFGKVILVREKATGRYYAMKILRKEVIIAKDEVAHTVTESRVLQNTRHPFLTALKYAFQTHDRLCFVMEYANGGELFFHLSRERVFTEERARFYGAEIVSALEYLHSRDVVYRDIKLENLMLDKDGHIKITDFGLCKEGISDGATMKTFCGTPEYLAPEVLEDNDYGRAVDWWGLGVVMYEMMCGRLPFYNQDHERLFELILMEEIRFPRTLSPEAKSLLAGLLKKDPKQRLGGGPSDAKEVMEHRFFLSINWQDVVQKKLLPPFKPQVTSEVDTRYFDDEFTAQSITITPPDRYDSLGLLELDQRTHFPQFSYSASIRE
Sequence of Tyrosine-protein kinase BTK (Homo sapiens) (Q06187 whole entry): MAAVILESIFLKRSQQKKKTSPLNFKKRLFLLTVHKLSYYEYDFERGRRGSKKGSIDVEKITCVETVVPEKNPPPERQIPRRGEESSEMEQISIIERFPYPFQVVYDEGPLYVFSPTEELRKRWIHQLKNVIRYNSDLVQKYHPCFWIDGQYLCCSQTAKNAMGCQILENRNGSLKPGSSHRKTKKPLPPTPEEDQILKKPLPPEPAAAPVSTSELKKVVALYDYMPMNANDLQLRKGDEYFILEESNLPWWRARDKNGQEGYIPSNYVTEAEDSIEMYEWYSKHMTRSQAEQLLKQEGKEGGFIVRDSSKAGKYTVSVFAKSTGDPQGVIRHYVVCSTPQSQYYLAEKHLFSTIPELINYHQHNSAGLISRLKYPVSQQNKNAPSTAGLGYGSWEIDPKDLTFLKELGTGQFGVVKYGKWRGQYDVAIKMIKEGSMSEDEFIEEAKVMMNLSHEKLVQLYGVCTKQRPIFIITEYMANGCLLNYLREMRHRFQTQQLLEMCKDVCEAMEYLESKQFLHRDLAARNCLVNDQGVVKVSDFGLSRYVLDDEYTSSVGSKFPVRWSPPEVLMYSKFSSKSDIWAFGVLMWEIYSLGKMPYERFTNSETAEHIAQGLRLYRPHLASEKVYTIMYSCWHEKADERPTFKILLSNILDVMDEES

By residual activity is commonly meant the signal under treatment as a percentage of the control signal. Consider `CC(C)S(=O)(=O)c1ccc2nccc(Nc3ccc4scnc4c3)c2c1`, for which the residual activity is 101% in test [1]; 89% in test [2]; 30.4% in test [3]; 88.5% in test [4]; 99.9% in test [5]; 106% in test [6]. Also, the residual activity in test [7] worked out at 94.8%; in test [8], 99.4%.
Regarding `CNC(=O)c1ccc2c(c1)ncn2-c1ccc(CC(=O)OC(C)(C)C)cc1`, the residual activity in test [1] amounted to 95.2%; in test [2], 96.8%; in test [3], 79.8%; in test [4], 92.4%; in test [5], 102%; in test [6] it was 108%. In addition, the residual activity in test [7] came to 88.9%; in test [8], 98.6%.
In the case of `Cc1cc(-c2cnc(N)c3c(-c4ccc5scnc5c4)csc23)n(C)n1`, the residual activity in test [1] amounted to 93.8%; in test [2], 95.4%; in test [3], 58%; in test [4], 87.6%; in test [5], 87.7%; in test [6] it was 98.2%. In addition, the results for the residual activity in test [7] and in test [8] were 88.1% and 95.2%, respectively.
